Laboratory results taken from patent publication US20060241067A1, “Methods For inhibiting angiogenesis, cell migration, cell adhesion, and cell survival” (priority 2002, published 2006).
“Also recorded” adds a separate entry of the source.

Tests used:
[1] = tested on: chick chorioallantoic membrane (CAM); assay: Chick chorioallantoic membrane (CAM) angiogenesis assay; assay type: in vivo, chicken; details: bFGF stimulated CAMs; 250 μM cAMP or 4 μg plasmid
[2] = tested on: chick chorioallantoic membrane (CAM); assay: Apoptosis markers in CAM blood vessels in vivo (Annexin V, cleaved caspases, TUNEL, DNA gels); design: species or system chicken; details: bFGF-stimulated CAMs
Experimental: CAM assays were performed as described (Kim et al. (2000) Am. J. Path. 156:1345-1362). Saline or bFGF stimulated CAMs were treated for 24 h with 20 μg anti-α5β1, anti-αvβ3 or control antibodies and then injected intravenously with 50 μl Annexin V-FITC. CAMs were harvested after 2 h, then analyzed by confocal microscopy. Alternatively, CAMs treated as above were excised, minced on ice, and treated with 0.1% dispase/0.1% collagenase for 1 h at 37° C. Single cell suspensions were incubated with FITC-Annexin V and analyzed as described above. bFGF stimulated CAMs were also treated with anti-α5β1 or anti-αvβ3 in the presence or absence of 500 μM caspase-3, -8 or -9 inhibitors. bFGF stimulated CAMs were also transfected with 4 μg N1-GFP, dnPKA or PKAcat expression plasmids. Freshly excised CAMs were homogenized in ice cold RIPA buffer containing protease inhibitors and immunoblotted to detect intact and cleaved caspase 3 or 8. For all treatment groups, n=10. CAMs were fixed with 3.7% paraformaldehyde prior to excision. The average number of blood vessel branch points per treatment group+/−SEM is presented. Some excised CAMs were cryopreserved, cut into 5 μm sections, immunostained with anti-cleaved caspase 3, anti-cleaved caspase 8 and anti-VFW antibodies (to detect blood vessels). CAMs were also stained by the TUNEL method to detect fragmented DNA.

Rac = Rac activity assay (GST-PBD affinity precipitation); assay type: cell-based, human; details: vitronectin 30 minutes, cAMP, PTHrP or transfection
Experimental: (§1) Human umbilical vein endothelial cells (HUVEC) were grown in Endothelial Growth Medium (containing 2% fetal bovine serum, bFGF and VEGF) (Clonetics, San Diego, Calif.). To render HUVECs quiescent for Rac and/or Rho assays, monolayers of endothelial cells were incubated for 18 hrs in Endothelial Basal Medium supplemented with 0.1% serum (Clonetics). Cell migration and adhesion assays on ECM substrates were performed as previously described in Kim et al. (S. Kim et al., Amer. J. Biol. Chem., 275:33920-33928 (2000); and S. Kim et al., Amer. J. Path., 156:1345-1362 (2000)).
Rho activity was determined by measuring the amount of Rho affinity bound to GST-Rhotekin binding domain (RBD). Levels of active Rho were determined by Western blotting affinity precipitated protein with anti-Rho antibodies while total Rho levels were measured by immunoblotting total cell lysates with anti-Rho. Rac activity was determined by measuring the amount of Rac affinity precipitated by the GST-p21-activated protein binding domain, PBD (Upstate Biotechnology, Syracuse, N.Y.). Levels of active Rac were determined by immunoblotting affinity precipitated protein with anti-Rac antibodies. […] Total Rac levels were measured by immunoblotting total cell lysates with anti-Rac.

HUVECS = assay: Annexin V-FITC staining of HUVECs (apoptosis); assay type: cell-based, human; details: cells on vitronectin, PTHrP, 250 μM dibutyryl cAMP or transfection
Experimental: Plates were also coated with […] goat anti-mouse IgG (Southern Biotechnology Associates, Inc., Birmingham, Ala.) at 37° C. for 2 h, rinsed, blocked with denatured BSA, and then incubated with […] anti-a5b1 or control IgG (anti-MHC) at 4° C. for 16 hrs. HUVECs were incubated on plates in the presence or absence of 10 mg/ml anti-α5β1, -αvβ3, -α2β1, or -MHC for 0-24 hrs. In some experiments, HUVECs were incubated with antibodies and […] caspase-3, -8 or -9 inhibitors or vehicle control (0.5% DMSO). Cells were then incubated with Annexin V-FITC for 15 min at room temperature in the dark. Washed cells were fixed in 1% paraformaldehyde, then incubated in DAPI. The percentage of Annexin positive cells in 5 microscopic fields was determined at 200× magnification by fluorescence microscopy.
HUVECs were plated for 24 h on ECM protein-coated plates in the presence of anti-αvβ3 or anti-α5β1, 1 μM HA1004 (a PKA inhibitor), and anti-αvβ3 or anti-α5β1 with 1 μM HA1004. Cells were stained with FITC-Annexin V or immunoblotted with anti-cleaved caspase 3 antibodies as described above. 5×10^6 HUVECs were electroporated in 300 μl of EGM with 30 μg of DNA (20 μg dnPKA or PKAcat plasmids, 2 μg N1-GFP and 8 μg pBluescript) at 300 V, 450 μF as previously described (Dormond et al. (2001) Nature Med. 7,1041-7). Expression of transgenes was determined by Western blotting of cell lysates with anti-V5 and anti-GFP antibodies. Transfection efficiency was quantified by determining the percent of cells that were co-transfected with GFP-expression vectors. Eighty-percent transfection efficiency was generally achieved using this electroporation method.

[3] = tested on: Human umbilical vein endothelial cells (HUVEC); assay: Endothelial cell migration assay (transwell) on ECM substrates; assay type: cell-based; details: 250 μM dibutyryl cAMP or transient transfection with expression constructs
Experimental: as §1
Migration assays were performed essentially as described (Kim, et. al., 2000). […] HUVECS (25,000) were added to the upper chamber of inserts in migration buffer (Hepes buffered M199 medium containing 1% BSA, 2 mM MgCl2, 2 mM CaCl2 and 0.2 mM MnCl2) containing 25 μg/ml of various antibodies. In some experiments, 250 μM dibutyryl cAMP was placed in the upper and lower chambers of the transwell. Cells were allowed to migrate from the upper to the lower chamber for four hours at 37° C. The number of cells which had migrated were counted in three representative high power (200×) fields per insert. The data are presented as number of cells migrating+/−standard error of the mean. Migration assays were similarly performed on transfected cells. In this case, migrated transfected cells were identified by fluorescent microscopy and counted.

CCCC(=O)Nc1ncnc2c1ncn2[C@@H]1O[C@@H]2COP(=O)(O)O[C@H]2[C@H]1OC(=O)CCC [dibutyryl cAMP]
angiogenesis (blood vessel branch points) [1]: completely suppresses angiogenesis; also recorded: potently inhibits angiogenesis
endothelial cell apoptosis in vivo (TUNEL staining) [2]: induces endothelial cell apoptosis in vivo
Rac activation (RacGTP to total Rac) (Rac): blocked
Rac activation (RacGTP to total Rac) (Rac; listed as cell permeable cAMP): inhibits Rac activation
apoptosis of endothelial cells (annexin V positive cells) (HUVECS): induced apoptosis in endothelial cells
apoptosis of endothelial cells (annexin V positive cells) (HUVECS; listed as cAMP): significantly induce apoptosis
endothelial cell migration on vitronectin [3]: quantitatively inhibits endothelial cell migration
